The values below come from patent US11759651B2, “In vivo visualization and control of pathological changes in neural circuits” (THE REGENTS OF THE UNIVERSITY OF CALIFORNIA, priority 2011, dated 2023).

Assay [1] has as its system hippocampal network activity. The following applies: cited from earlier work.
Assay [2] concerns APPL/S mice. Briefly: Object recognition test. It is filed as in vivo, mouse. As to conditions: ANOVA and post-hoc Student-Neuman-Keuls testing.
The subject of assay [3] is APP/PS1 mice. Briefly: LTP in the hippocampus. The following applies: APP/PS1-vehicle vs. APP/PS1-LM11A-31, p=0.02, wt-vehicle vs. wt-LM11A-31, NS. The assay is classed as in vivo, mouse.
For assay [4], the system named is APP^L/S mice. Kind of assay: Choline acetyltransferase immunostaining of basal forebrain sections. The assay is classed as in vivo, mouse. As to conditions: APP^L/S mice treated with LM11A-31. How it is done:
Scale bars=25 μm. b, Photomicrograph of choline acetyltransferase-immunostained basal forebrain sections. […] Statistical significance was determined using ANOVA and post-hoc Student-Neuman-Keuls testing.

In assay [5] the test system is APP^L/S mice. Kind of assay: APP immunolabeling for dystrophic neurites and Thioflavin S staining for amyloid plaques in hippocampus. The assay is classed as in vivo. As to conditions: APP^L/S mice given vehicle or LM11A-31; transgenic mouse model of AD.
Setting [6] is: 10 μM NBQX and 25 μM D-AP5 applied together, stimulus pulse applied to DG, 400 μm-thick ventral hippocampal slice.

Each structure is given as a SMILES string. Read-outs that look alike come from different tables or passages of the source.

For the compound `NC(CCCP(=O)(O)O)C(=O)O` [D-AP5], in assay [1] (setting [6]), the VSDI signal result is given as “abolished”.

For the compound `COc1ccc(-c2ccc(=N)n(CCCC(=O)O)n2)cc1` [GABAzine], the VSDI signal result in assay [1] was “confirmed signal extinction”.

For `CC[C@H](C)[C@H](N)C(=O)NCCN1CCOCC1` [LM11A-31], the object recognition deficits entry in assay [2] was “prevented object recognition deficits”. Besides, the LTP entry in assay [3] was “normalizes LTP”. In addition, in assay [4], the “length, volume and branching of cholinergic neurites in the basal forebrain” value was “increased length, volume, and branching of cholinergic neurites”. Also, the “dystrophic neurites and amyloid plaque formation in the hippocampus” value in assay [5] was “rescued significantly”.

Turning to `NS(=O)(=O)c1cccc2c1c([N+](=O)[O-])cc1nc(O)c(O)nc12` [NBQX], the VSDI signal entry in assay [1] (setting [6]) is reported as “abolished”.
